According to US20230392127A1, “METHOD FOR CONSTRUCTION OF ATOPIC DERMATITIS MODEL BY USING PLURIPOTENT STEM CELL-DERIVED SKIN ORGANOID” (KANGSTEM BIOTECH CO., LTD., priority 2020, published 2023):

What was measured:
[1] = tested on: induced pluripotent stem cell-derived skin organoids; assay: Skin organoid size and cartilage formation after Wnt signaling pathway activation (brightfield images); type: cell-based, human
Method: A skin organoid was cultured based on the literature disclosing an existing skin organoid differentiation protocol using induced pluripotent stem cell lines (Lee, J. et al. Hair-bearing human skin generated entirely from pluripotent stem cells. Nature 582, 399-404(2020)). The induced pluripotent stem cell colony was separated into small cell populations using ReLeSR™ (Stem Cell Technology) and then separated into single cells using Accutase (ThermoFisher). For embryoid body formation, 1000 single cells were aliquoted into each well of a U-bottom low-attachment 96-well plate (Corning). Essential 8 (Gibco) supplemented with Y-27632 (20 μM) was used as an embryoid body culture solution. The single cells were cultured for 2 days until the embryoid body grew to a size of 300 to 500 μm. On day 2 of differentiation, the formed embryoid bodies were transferred to a culture solution including 2% Matrigel (Matrigel; Corning), 10 μM SB431542 (Tocris), 4 ng/ml FGF2 (PeproTech) and 15 ng/ml BMP4 (PeproTech) for non-neural ectoderm differentiation induction. […] The skin organoid to be analyzed was photographed with an EVOS XL Core brightfield system microscope (Thermo Fisher) at ×40 magnification. […]

[2] = tested on: cartilage expression markers COL2A, ACAN, and SOX9; assay: Real-time PCR of cartilage expression markers in skin organoids; type: cell-based, human; settings: skin organoids on day 69; real-time PCR normalized to GAPDH; CHIR(+) vs CHIR(-); FIG. 8
Method: As a method for evaluating gene expression, cells were lysed and genes were extracted using a lysis buffer, and gene expression was quantified using RT-PCR. To evaluate gene expression, total RNA was isolated with an RNeasy kit (Qiagen, Cat. No. 74106) and cDNA was prepared according to the manufacturer's instructions using Reverse Transcriptase III (Thermo Fisher Scientific, Cat. No. 4368814). Real-time PCR was performed using SRBR Green Master Mix (Thermo Fisher Scientific, Cat. No. A25776) and detection was performed using a Step One Plus Real-time PCR system (Applied Biosystems). The expression of genes was normalized to the expression of glyceraldehyde-3-phosphate dehydrogenase (GAPDH). The degree of gene expression was evaluated using primers specific for COL2A, ACAN, and SOX9 mRNAs.

## Cc1c[nH]c(-c2cnc(NCCNc3ccc(C#N)cn3)nc2-c2ccc(Cl)cc2Cl)n1 [CHIR-99021]
[1]; 0.5 to 8 μM added on day 6, organoids on days 38, 65 and 85, vs CHIR(-), FIG. 7
  cartilage formation in skin organoids: cartilage was not formed
[1]; 0.5 to 8 μM added to culture solution on day 6 of differentiation, compared to skin organoids generated by the existing method (CHIR(-)), FIGS. 6 and 7
  sizes of the organoids: remarkably increased
[2]
  gene expression level of cartilage expression marker ACAN: remarkably reduced
  gene expression level of cartilage expression marker COL2A: remarkably reduced
  gene expression level of cartilage expression marker SOX9: remarkably reduced
